Structures are written as SMILES. Values joined by “and” are separate entries in the source; they are usually repeats but may differ in a detail not shown here. Equal values may be shown once. Inconclusive results and toxic doses are left out.

Consider 22 compounds from PubChem BioAssay AID330 (DTP/NCI, 2004).

In the test the test system is P388 leukemia ip, CD2F1 mice, survival T/C. Kind of test: NCI In Vivo Anticancer Drug Screen. Data for tumor model P388 Leukemia (intraperitoneal) in CD2F1 (CDF1) mice. Particulars: endpoint: median survival time, higher = longer survival. The procedure, abridged:
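Mice carrying the transplanted tumor received test compound or vehicle. Survival was recorded in each group, and the value is the treated-group measurement divided by that of the vehicle-treated control group.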

The mark [1] stands for this setting: dose: 50.0 mg/kg/injection, schedule: Q01DX005 (ip), vehicle: saline with Tween-80.
[2] abbreviates: dose: 100.0 mg/kg/injection, schedule: Q01DX005 (ip), vehicle: saline with Tween-80.
The mark [3] stands for this setting: dose: 60.0 mg/kg/injection, schedule: Q01DX005 (ip), vehicle: Klucel (hydroxypropylcellulose) (HPC).
The mark [4] stands for this setting: dose: 60.0 mg/kg/injection, schedule: Q01DX005 (ip), vehicle: saline with Tween-80.
Where [5] appears, read: dose: 120.0 mg/kg/injection, schedule: Q01DX005 (ip), vehicle: saline with Tween-80.
Where [6] appears, read: dose: 50.0 mg/kg/injection, schedule: Q01DX009 (ip), vehicle: Klucel (hydroxypropylcellulose) (HPC).
[7] abbreviates: dose: 25.0 mg/kg/injection, schedule: Q01DX009 (ip), vehicle: saline with Tween-80.
Where [8] appears, read: dose: 50.0 mg/kg/injection, schedule: Q01DX009 (ip), vehicle: saline with Tween-80.
Where [9] appears, read: dose: 100.0 mg/kg/injection, schedule: Q01DX009 (ip), vehicle: saline with Tween-80.
Setting [10] is: dose: 50.0 mg/kg/injection, schedule: Q01DX005 (ip), vehicle: Klucel (hydroxypropylcellulose) (HPC).
Where [11] appears, read: dose: 100.0 mg/kg/injection, schedule: Q01DX005 (ip), vehicle: Klucel (hydroxypropylcellulose) (HPC).
[12] abbreviates: dose: 200.0 mg/kg/injection, schedule: Q01DX005 (ip), vehicle: Klucel (hydroxypropylcellulose) (HPC).
[13] abbreviates: dose: 12.5 mg/kg/injection, schedule: Q01DX009 (ip), vehicle: Klucel (hydroxypropylcellulose) (HPC).
[14] abbreviates: dose: 25.0 mg/kg/injection, schedule: Q01DX009 (ip), vehicle: Klucel (hydroxypropylcellulose) (HPC).
Setting [15] is: dose: 240.0 mg/kg/injection, schedule: Q01DX005 (ip), vehicle: saline with Tween-80.
[16] abbreviates: dose: 120.0 mg/kg/injection, schedule: Q01DX005 (ip), vehicle: Klucel (hydroxypropylcellulose) (HPC).

Turning to `CSC(=S)N/N=C(\Cc1ccccc1)c1ccccn1`, the T/C was 103 % of control (dose: 12.5 mg/kg/injection, schedule: Q01DX005 (ip), vehicle: saline with Tween-80); 106 % of control (dose: 25.0 mg/kg/injection, schedule: Q01DX005 (ip), vehicle: saline with Tween-80); 99 % of control and 108 % of control under setting [1]; 107 % of control under setting [2]; 107 % of control (dose: 200.0 mg/kg/injection, schedule: Q01DX005 (ip), vehicle: saline with Tween-80).

In the case of `O=S(=O)(NC(=S)S)c1ccccc1`, the T/C is, setting by setting: (dose: 12.5 mg/kg/injection, schedule: Q01DX009 (ip), vehicle: water) 102 % of control and 88 % of control and 94 % of control; (dose: 25.0 mg/kg/injection, schedule: Q01DX009 (ip), vehicle: water) 104 % of control and 107 % of control and 94 % of control; (dose: 50.0 mg/kg/injection, schedule: Q01DX009 (ip), vehicle: water) 102 % of control and 106 % of control and 116 % of control; (dose: 100.0 mg/kg/injection, schedule: Q01DX009 (ip), vehicle: water) 112 % of control (2×) and 123 % of control.

With `COc1nc(C(Cl)(Cl)Cl)c(Cl)c(OC)c1Cl`, the T/C by setting is: (dose: 17.8 mg/kg/injection, schedule: Q01DX005 (iv), vehicle: other) 108 % of control; (dose: 25.0 mg/kg/injection, schedule: Q01DX005 (ip), vehicle: Klucel (hydroxypropylcellulose) (HPC)) 114 % of control and 115 % of control; (dose: 26.7 mg/kg/injection, schedule: Q01DX005 (ip), vehicle: other) 111 % of control and 121 % of control; (dose: 26.7 mg/kg/injection, schedule: Q01DX005 (iv), vehicle: other) 109 % of control; (dose: 40.0 mg/kg/injection, schedule: Q01DX005 (ip), vehicle: Klucel (hydroxypropylcellulose) (HPC)) 100 % of control and 102 % of control; under setting [3], 105 % of control and 107 % of control. For the same compound, the T/C is, setting by setting: (dose: 60.0 mg/kg/injection, schedule: Q01DX005 (iv), vehicle: other) 107 % of control; (dose: 90.0 mg/kg/injection, schedule: Q01DX005 (ip), vehicle: other) 171 % of control; (dose: 134.0 mg/kg/injection, schedule: Q01DX005 (ip), vehicle: Klucel (hydroxypropylcellulose) (HPC)) 150 % of control; (dose: 135.0 mg/kg/injection, schedule: Q01DX005 (ip), vehicle: Klucel (hydroxypropylcellulose) (HPC)) 106 % of control; (dose: 135.0 mg/kg/injection, schedule: Q01DX005 (ip), vehicle: other) 196 % of control and 207 % of control; (dose: 202.3 mg/kg/injection, schedule: Q01DX005 (ip), vehicle: Klucel (hydroxypropylcellulose) (HPC)) 105 % of control. Further, the T/C (dose: 303.3 mg/kg/injection, schedule: Q01DX005 (ip), vehicle: Klucel (hydroxypropylcellulose) (HPC)) is 168 % of control.

In the case of `COc1ccc(Cl)cc1Cn1ccnc1`, the T/C reads like this: under setting [4], 97 % of control; under setting [5], 103 % of control.

`O=S1(=O)CCN(Cc2ccco2)CC1`: the T/C was 100 % of control under setting [6] and 99 % of control (dose: 100.0 mg/kg/injection, schedule: Q01DX009 (ip), vehicle: Klucel (hydroxypropylcellulose) (HPC)).

With `C=C1C(=O)OC2/C=C(/C)C(OC(C)=O)CC(O)/C(C)=C\C(OC(=O)/C(C)=C\C)C12` (stereo not given), the T/C is, setting by setting: (dose: 12.5 mg/kg/injection, schedule: Q01DX009 (ip), vehicle: saline with Tween-80) 100 % of control; under setting [7], 117 % of control; under setting [8], 118 % of control; under setting [9], 114 % of control.

As for `O=C(NCCCCCCNC(=O)C12CC3CC(CC(C3)C1)C2)C12CC3CC(CC(C3)C1)C2`, the T/C runs as follows: under setting [10], 92 % of control; under setting [11], 92 % of control; under setting [12], 90 % of control.

For the compound `[Br][Hg][CH]1CCC2CCCC1O2` (stereo not given), the T/C is, setting by setting: under setting [13], 89 % of control; under setting [14], 90 % of control.

`CC(/C=C/c1ccccc1)=Nc1ccc(Cl)cc1`: the T/C under setting [7] is 100 % of control and 107 % of control; the T/C under setting [8] is 100 % of control and 101 % of control and 107 % of control; the T/C under setting [9] is 100 % of control and 101 % of control; the T/C (dose: 200.0 mg/kg/injection, schedule: Q01DX009 (ip), vehicle: saline with Tween-80) is 98 % of control.

In the case of `COC(=O)N1c2ccccc2N(C(=O)OC)c2c1oc1ccccc1c2=O`, the T/C was 92 % of control under setting [4], 91 % of control under setting [5] and 101 % of control under setting [15].

On to `NCCCNCCCCNC(=O)C(O)NC(=O)CCCCCCN=C(N)N` (stereo not given), for which the T/C is 193 % of control and 195 % of control and 198 % of control (dose: 4.4 mg/kg/injection, schedule: Q01DX009 (ip), vehicle: other); 193 % of control and 194 % of control and 200 % of control (dose: 4.4 mg/kg/injection, schedule: Q01DX009 (ip), vehicle: saline); 193 % of control (dose: 4.5 mg/kg/injection, schedule: Q01DX009 (ip), vehicle: other); 188 % of control and 196 % of control (dose: 4.5 mg/kg/injection, schedule: Q01DX009 (ip), vehicle: saline); 159 % of control (dose: 6.25 mg/kg/injection, schedule: Q01DX005 (ip), vehicle: saline); 165 % of control and 172 % of control (dose: 12.5 mg/kg/injection, schedule: Q01DX005 (ip), vehicle: saline). Further, where the note is “dose: 34.0 mg/kg/injection, schedule: Q01DX009 (ip), vehicle: saline”, the T/C was 205 % of control.

Consider `COc1cccc(-c2nc(-c3ccccc3)nc(N(C)C)n2)c1O`, for which the T/C by setting is: under setting [3], 98 % of control; under setting [16], 92 % of control.

In the case of `CCOC(=O)c1cnc2cc3c(cc2c1Nc1cccc(C(F)(F)F)c1)OCO3`, the T/C is, setting by setting: under setting [3], 96 % of control; under setting [16], 102 % of control; (dose: 240.0 mg/kg/injection, schedule: Q01DX005 (ip), vehicle: Klucel (hydroxypropylcellulose) (HPC)) 101 % of control.

For `CC(=O)C[n+]1ccccc1Sc1ccc(Cl)cc1`, the T/C is 111 % of control under setting [1] and 111 % of control under setting [2].

As for `CCC[P+](C)(CCC#N)c1ccccc1` (stereo not given), the T/C under setting [13] is 108 % of control.

Consider `CN1C(=O)N(C)C2(C(=O)c3cccc4cccc2c34)C1=O` (stereo not given), for which the T/C was 100 % of control (dose: 50.0 mg/kg/injection, schedule: Q01DX009 (ip), vehicle: distilled water + alcohol); 94 % of control (dose: 100.0 mg/kg/injection, schedule: Q01DX009 (ip), vehicle: distilled water + alcohol); 100 % of control (dose: 200.0 mg/kg/injection, schedule: Q01DX009 (ip), vehicle: distilled water + alcohol).

Consider `CC1CCC(OC(=O)NCCCl)CC1` (stereo not given), for which the T/C is 97 % of control under setting [10], 96 % of control under setting [11] and 101 % of control under setting [12].

Consider `O=C(N/N=C/c1cccc2ccccc12)c1cccnc1`, for which the T/C (dose: 6.25 mg/kg/injection, schedule: Q01DX009 (ip), vehicle: saline) is 100 % of control; the T/C (dose: 12.5 mg/kg/injection, schedule: Q01DX009 (ip), vehicle: saline) is 89 % of control; the T/C (dose: 100.0 mg/kg/injection, schedule: Q01DX009 (ip), vehicle: saline) is 98 % of control.

Regarding `COC(=O)NC1CCC(=O)N1Cc1ccccc1` (stereo not given), the T/C reads like this: under setting [4], 96 % of control; under setting [5], 94 % of control; under setting [15], 102 % of control.

Consider `COc1ccc2c(c1)CCC1C2CCC2(C)C1CCC2(C)N(C)C` (stereo not given), for which the T/C was 102 % of control (dose: 6.25 mg/kg/injection, schedule: Q01DX005 (ip), vehicle: Klucel (hydroxypropylcellulose) (HPC)) and 102 % of control (dose: 12.5 mg/kg/injection, schedule: Q01DX005 (ip), vehicle: Klucel (hydroxypropylcellulose) (HPC)).

Consider `C[C@]12CCC(=O)C=C1CC[C@@H]1[C@@H]2[C@@H](O)C[C@@]2(C)[C@H]1CC[C@]2(C)O`, for which the T/C is 90 % of control under setting [7]; 100 % of control under setting [8]; 100 % of control under setting [9]; 100 % of control (dose: 100.0 mg/kg/injection, schedule: Q04DX003 (ip), vehicle: saline with Tween-80); 100 % of control (dose: 200.0 mg/kg/injection, schedule: Q04DX003 (ip), vehicle: saline with Tween-80); 100 % of control (dose: 400.0 mg/kg/injection, schedule: Q04DX003 (ip), vehicle: saline with Tween-80).

As for `O=c1[nH][nH]c2c([N+](=O)[O-])ccc(F)c12`, the T/C reads like this: under setting [13], 100 % of control; under setting [14], 101 % of control; under setting [6], 110 % of control.
